Tests used:
Assay type in all cases: physicochemical
[1] = Radiolabelling yield (RCP) by reversed phase HPLC of 99mTc-labelled monoamine, diamide, single thiol peptide chelator with and without Trolox
Protocol: Lyophilized kit “placebo” vials were prepared containing sodium glucoheptonate dihydrate, edetate disodium dihydrate, and stannous chloride dihydrate at the concentrations set forth in Table 1 (control formulation).
The peptide chelator was radiolabelled with ^99mTc in the presence and absence of Trolox®. The peptide chelator was dissolved in water at a concentration of 1 mg/mL, and 50 μg (50 μL) of the peptide was added to each of three placebo vials. Ethanol and Trolox® were added to the control and Trolox®, preparations as described in Example 11. In addition, 100 μL phosphate buffered saline (PBS) was added to each preparation.

[2] = Radiolabelling yield (RCP) by reversed phase HPLC of 99mTc depreotide from lyophilized kits after accelerated temperature (40° C.) storage; conditions: lyophilized kits thermally stressed by accelerated temperature storage
Protocol: Lyophilized kits were prepared containing depreotide, Trolox®, and other components as described in Table 5. […] The kits were stored for one week at 40° C. Some kits were also stored at −10° C. as controls.

[3] = Radiolabelling yield (RCP) by reversed phase HPLC of 99mTc-labelled bisamide bisthiol non-peptide chelator with and without Trolox
Excerpt: The non-peptide chelator was radiolabelled with ^99mTc in the presence and absence of Trolox® using the placebo vial heated preparation procedure as described in Example 4.

[4] = Radiolabelling yield (RCP) by reversed phase HPLC of 99mTc-labelled glycoprotein IIb/IIIa receptor-binding peptide with and without Trolox
Protocol: Lyophilized kit vials were prepared containing the peptide (50 μg), sodium glucoheptonate dihydrate (10 mg), stannous chloride dihydrate (50 μg), and edetate disodium dihydrate (100 μg). The formulation was adjusted to pH 7.4 prior to lyophilization.
The lyophilized kits were radiolabelled with ^99mTc in the presence and absence of Trolox®. To the Trolox® preparation was added 2 mg Trolox® in 100 μL ethanol and 100 μL saline. The ethanol was necessary to aid in the dissolution of the Trolox®. To the control preparation was added 100 μL ethanol and 100 μL saline to account for the additional saline or ethanol added with the Trolox.

[5] = Radiolabelling yield (RCP) by reversed phase HPLC of 99mTc-labelled depreotide from lyophilized kits with Trolox; conditions: prepared from formulated kits
Protocol: Lyophilized kit vials were prepared containing depreotide, Trolox®, and other components as described in Table 3.
Some of the formulations were also radiolabelled in a heated preparation (heat in a boiling water bath for 10 minutes).

[6] = Radiolabelling yield (RCP) by reversed phase HPLC of 99mTc-labelled depreotide from lyophilized kits with gentisic acid; conditions: when included in formulated kits
Protocol: Lyophilized kit vials were prepared containing depreotide, GA, and other components as described in Table 1. Formulations were adjusted to pH 7.4 or 8.5 (as noted) prior to lyophilization.

Row | stabilization of 99mTc-depreotide [2] | effect on radiolabelling yield and stability of 99mTc-depreotide [6] | SMILES | effect on radiolabelling yield and stability of 99mTc-labelled peptide chelator [1] | effect on radiolabelling yield and stability of 99mTc-labelled non-peptide chelator [3] | effect on radiolabelling yield and stability of 99mTc-peptide [4] | effect on radiolabelling yield and stability of 99mTc depreotide [5]
1 | stabilizes | – | Cc1c(C)c2c(c(C)c1O)CCC(C)(C(=O)O)O2 (stereo not drawn) [Trolox®, 6-hydroxy-2,5,7,8-tetramethylchroman-2-carboxylic acid] | increases the radiolabelling yield and the stability | increases the radiolabelling yield and the stability | increases the radiolabelling yield and the stability | increases the radiolabelling yield and the stability
2 | – | decreases the radiochemical purity | O=C(O)c1cc(O)ccc1O [gentisic acid, Gentisic acid] | – | – | – | –
